According to US8722364B2, “Method for increasing microbial catalase production” (Jiangnan University, priority 2011, dated 2014):

Assays:
[1] = system: catalase; assay: Storage stability of unpurified fermentation broth (remaining extracellular catalase activity); set-up: species or system Bacillus sp. WSHDZ-01
Method: (§1) Catalase activity was measured using the method described by Aebi (Aebi HE. Catalase in vitro. Method Enzymol 1984; 105:121-6). Total reaction volume is 3 ml. 0.1 ml enzyme solution was added to 2.9 ml KH2PO4—K2HPO4 buffer (pH 7.0, 10 mM KH2PO4/50 mM K2HPO4, 0.45 g/L H2O2). Decomposition rate of H2O2 was measured at 240 nm using a UV-Vis spectrophotometer. One unit of catalase activity is defined as the amount of enzyme that decomposes 1 μmol H2O2 per min at pH 7.0, 25° C.
The culturing of Bacillus sp. WSHDZ-01 was performed as described under control procedure with one modification, that is, 5 g/L sodium hexametaphosphate was added at 36 hours of fermentation.
After fermentation, unpurified fermentation broth was stored at 25° C. for 12 hours. […] The broth storage stability was improved by 28.3% under the procedure with sodium hexametaphosphate.

[2] = system: Bacillus sp. WSHDZ-01; assay: Fermentation of Bacillus sp. WSHDZ-01 with sodium hexametaphosphate added; extracellular catalase activity of the broth by catalase assay (Aebi); format: cell-based
Method: (§2) Fermentation Culture: the fermentation process was performed in a 3 liter (L) stirred fermenter (KFT-3L, Korea) with a working volume of 1.8 L. Above 12-h-old basic flask culture was added at a concentration of 5.0% (v/v) to 1.8 L fermentation medium, and incubated under a stepwise temperature control, in which the temperature was maintained at 37° C. for the first 10 hours, at 35° C. during 10-20 hours, and at 32° C. after 20 hours. The aeration rate was 1.0 (v/v/m) (volume of air per volume of culture per minute). The shaking speed was 400 rpm. The total fermentation period was 48 to 53 hours. Proteinase inhibitors can be added during this fermentation process as described below.
as §1
Bacillus sp. WSHDZ-01 with accession number CCTCC NO. M206062 was used to produce catalase. Bacillus sp. WSHDZ-01 grown on a slant culture was inoculated into 50 ml of liquid seed medium in a 250 ml culture flask and cultured at 37° C., 200 rpm for 12-14 hours. 6% above liquid seed culture (v/v) was added to 80 ml basic fermentation culture in a 500 ml culture flask, and incubate at 37° C., 200 rpm, for 36-40 hours.
as §2, with “the” for “Fermentation Culture: the”, “L” for “liter (L)”, “The” for “Above”, “hours.” for “hours. Proteinase inhibitors can be added during this fermentation process as described below.”

[3] = 1 g/L added at 30 hours of fermentation
[4] = 3 g/L added at 36 hours of fermentation
[5] = 5 g/L added at 36 hours of fermentation
[6] = 7 g/L added at 36 hours of fermentation
[7] = 10 g/L added at 40 hours of fermentation

For `O=P1([O-])OP(=O)([O-])OP(=O)([O-])OP(=O)([O-])OP(=O)([O-])OP(=O)([O-])O1.[Na+].[Na+].[Na+].[Na+].[Na+].[Na+]` [sodium hexametaphosphate], the “percentage of remaining extracellular catalase activity of the stored fermentation broth” value ([1]; 5 g/L added at 36 hours of fermentation, unpurified broth stored at 25° C. for 12 hours) was 84.4%, the “broth storage stability improved” value ([1]; 5 g/L added at 36 hours, stored at 25° C. for 12 hours, versus control culture procedure (56.1%)) was 28.3% and the “Extracellular catalase activity of the fermentation broth” value [2, 3] was 15700 U/mL. For the same compound, the “increase of enzyme activity from that of the control procedure” value (shortened to “increase of enzyme activity”) [2, 3] was 16.3%, the “Extracellular catalase activity of the fermentation broth” value [2, 4] was 18600 U/mL and the “increase of enzyme activity” value [2, 4] was 37.7%. The “Extracellular catalase activity of the fermentation broth” value [2, 5] was 19200 U/mL, the “increase of enzyme activity” value [2, 5] was 42.2% and the “Extracellular catalase activity of the fermentation broth” value [2, 6] was 19700 U/mL. For the same compound, the “increase of enzyme activity” value [2, 6] was 45.9%, the “Extracellular catalase activity of the fermentation broth” value [2, 7] was 16900 U/mL and the “increase of enzyme activity” value [2, 7] was 25.2%.
